Test results as given in patent publication US4248879A, “Benzopyranotriazoles” (Beecham Group Limited, priority 1978, dated 1981).

Key:
rat PCA = experiment: Passive Cutaneous Anaphylaxis (PCA) in rats; format: in vivo, Male Wistar rats; details: S.C.
Procedure: Serum containing heat-labile homocytotropic antibody was raised in rats to crystallized ovalbumin XOA by the method of Mota (I. Mota, Immunology, 7, 681, (1964)) using Bordettela pertussis vaccine as adjuvant.
Passive cutaneous anaphylaxis (PCA) was carried out by a method based on that of Ovary and Bier, (A. Ovary and O. G. Bier, Proc. Soc. Exp. Bio. Med 81, 584, (1952)) as modified by Goose and Blair. (Immunology 16, 749 (1969)).
Male Wistar rats of 250-300 g were give 0.1 ml of each of six twofold serial dilutions of pooled antiserum in 0.9% saline injected intradermally into separate sites in their shaved backs. Later (72 hours) the animals were challenged by intravenous injection of 0.3 ml of a 1% solution of ovalbumin in an isotonic solution of saline buffered with 0.05 M, pH 7.2, Sorenson Buffer (PBS), mixed with 0.2 ml of a 5% solution of Pontamine Sky Blue (6BX C.I. 24410, Raymond A. Lamb, London) in isotonic saline. The rats were killed after 20 minutes and the diameter of the blue wheals at the antibody injection sites was measured on the outer surface of the skin. The starting dilution of the serum was adjusted so that there was no response, after challenge, at the injection site of the highest dilution and a maximum response at the lowest dilutions. Typically six twofold serial dilutions of the serum from 1/4 to 1/128 were used.
Compounds were tested for their ability to reduce the diameter of the wheals at those intradermal sites which in control animals gave less than maximum response. Each dose of the compound was administered to six rats at a measured time prior to intravenous challenge with ovalbumin. Control groups of six rats were given the same volume (0.2 ml: 100 g^-1) of carrier fluid at the same time prior to the challenge.
The results were calculated as follows: % inhibition of PCA=100 (1-a/b) where a=the sum of the diameters of the wheals produced in the test animal at the sites of antibody dilutions as used in control groups and b=the mean sum of the diameters of the wheals produced in the control group of animals at those antibody sites where at least five out of six of the animals gave less than maximum response. A typical variation in the control group of animals was SEM±6%.

LD50 (toxicity) in mice = details: mouse, in vivo
Procedure: The LD50 of the compound of Example 6 (d) is between 20 to 80 mg/kg i.v. and between 125 to 500 mg/kg per os, in mice.

[1] = PBS with NaHCO3, 10 mins before antigen challenge, 10 mg/kg
[2] = PBS with NaHCO3, 30 mins before antigen challenge, 10 mg/kg
[3] = PBS with NaHCO3, 10 mins before antigen challenge, 20 mg/kg
[4] = PBS with NaHCO3, 30 mins before antigen challenge, 20 mg/kg
[5] = PBS with NaHCO3, 10 mins before antigen challenge, 5 mg/kg
[6] = PBS with NaHCO3, 30 mins before antigen challenge, 5 mg/kg

SMILES: O=c1c2ccccc2oc2nn[nH]c12 [Example 1, 9-Oxo-1H,9H-benzopyrano[2,3-d]-v-triazole]
- % Inhibitions of rat PCA (rat PCA; [1]): 83%
- % Inhibitions of rat PCA (rat PCA; [2]): 29%

SMILES: Cc1ccc2oc3nn[nH]c3c(=O)c2c1 [Example 3, 7-Methyl-9-oxo-1H,9H-benzopyrano[2,3]-v-triazole]
- % Inhibitions of rat PCA (rat PCA; [1]): 78%
- % Inhibitions of rat PCA (rat PCA; [2]): 41%

SMILES: COc1ccc2oc3nn[nH]c3c(=O)c2c1 [Example 4, 7-Methoxy-9-oxo-1H,9H-benzopyrano[2,3-d]-v-triazole]
- % Inhibitions of rat PCA (rat PCA; [3]): 66%
- % Inhibitions of rat PCA (rat PCA; [4]): 35%

SMILES: Cc1ccc2c(=O)c3[nH]nnc3oc2c1C [Example 5, 5,6-Dimethyl-9-oxo-1H,9H-benzopyrano[2,3-d]-v-triazole]
- % Inhibitions of rat PCA (rat PCA; [3]): 64%
- % Inhibitions of rat PCA (rat PCA; [4]): 14%

SMILES: Cc1cc2oc3nn[nH]c3c(=O)c2cc1C [Example 6d]
- % Inhibitions of rat PCA (rat PCA; [5]): 72%
- % Inhibitions of rat PCA (rat PCA; [6]): 22%
- LD50 (LD50 (toxicity) in mice; iv): 20 to 80 mg/kg
- LD50 (LD50 (toxicity) in mice; po, per os): 125 to 500 mg/kg

SMILES: Cc1ccc2oc3nn[nH]c3c(=O)c2c1C [Example 6e, 7,8-dimethyl-1H,9H-benzopyrano[2,3-d]-v-triazole]
- % Inhibitions of rat PCA (rat PCA; [5]): 86%
- % Inhibitions of rat PCA (rat PCA; [6]): 45%

SMILES: Cc1cc(C)c2c(=O)c3[nH]nnc3oc2c1C [Example 7, 9-oxo-5,6,8-Trimethyl-1H,9H-benzopyrano[2,3-d]-v-triazole]
- % Inhibitions of rat PCA (rat PCA; [1]): 40%
- % Inhibitions of rat PCA (rat PCA; [2]): 18%
